Values joined by “and” are separate entries in the source; they are usually repeats but may differ in a detail not shown here. Identical values can stand only once.
How the values were obtained:
Assay type in all cases: cell-based
[1] = system: HEK293T cells; experiment: DNA Typewriter: sequential prime editing of integrated TAPE-1 arrays, pegRNA pool + PE2, amplicon sequencing; conditions: for Overall editing rate: reads exhibiting any editing, of all reads: pegRNA pool + PE2, four days
Text: To test this idea, DNA Tape (“TAPE-1”) was designed by modifying a spacer sequence previously shown to be highly amenable to prime editing by the PE2 enzyme (HEK293 target 3 or HEK3). In TAPE-1, a 3-bp key (GGA) is followed by one tandem array of a 14-bp monomer (TGATGGTGAGCACG) (SEQ ID NO: 57) that includes the PAM sequence (TGG) at positions 4-6. At the 5′-most end of the TAPE-1 array, the key sequence, the first 14-bp monomer, and the first 6 bases of the subsequent 14-bp monomer, collectively comprise an intact 20-bp spacer and PAM (FIG. 1A). A set of 16 pegRNAs was further designed to target TAPE-1, with each pegRNA programming a distinct 5-bp insertion (FIG. 1B). The first 2-bp of the insertion is unique to each of the 16 pegRNAs. The remaining 3-bp of the insertion corresponds to the key (GGA). The inventors reasoned that when a pegRNA/PE2-mediated insertion occurred at the active TAPE-1 site, it would: (1) record the identity of the pegRNA via the 2-bp portion of the insertion; (2) inactivate the current active site by disrupting its sequence; and (3) activate the next monomer along the array, as the newly inserted GGA key, together with the subsequent […], creates an intact 20-bp spacer and PAM. In the next iteration of genome editing, a pegRNA-mediated insertion to the second monomer would be recorded while also moving the type-guide to the third monomer, and then to the fourth, the fifth, and so on (FIG. 1C).
TAPE-1 arrays were synthesized and cloned with varying numbers of monomer units (2×TAPE-1, 3×TAPE-1, 5×TAPE-1), and stably integrated these arrays into the genome of HEK293T cells via the piggyBAC system. The resulting cells were transiently transfected with a pool of plasmids designed to express PE2 (pCMV-PE2-P2A-GFP; Addgene #132776) and sixteen pegRNAs, each programmed to insert an NNGGA barcode to TAPE-1, and harvested them after four days. The TAPE-1 region was PCR-amplified from genomic DNA and sequenced.
For each TAPE-1 array, the sequencing reads were categorized into those in which: (1) no editing occurred; (2) the observed pattern was consistent with sequential, directional editing; or (3) the observed pattern was inconsistent with sequential, directional editing (FIG. 1D-F; Table 1). […] However, within the set of reads showing edits, the data were overwhelmingly consistent with sequential, directional editing. For example, with 2×TAPE-1, the second monomer was edited in 22.8±1.7% of reads in which the first monomer was also edited (FIG. 1D). In contrast, the second monomer was only edited in 0.6% of reads in which the first monomer was not edited. […] Data obtained from 3×TAPE-1 and 5×TAPE-1 were also consistent with sequential genome editing. For example, 98.5% (3×TAPE-1) and 99.0% (5×TAPE-1) of reads that were edited at the second monomer were also edited at the first monomer, while 97.6% (3×TAPE-1) and 98.8% (5×TAPE-1) of reads that were edited at the third monomer were also edited at the first and second monomers (FIG. 1E-1F).
Table 1. Read counts and editing efficiencies for 2×TAPE-1, 3×TAPE-1, and 5×TAPE-1. Sequencing reads were grouped based on the observed editing pattern. For example, reads from 2×TAPE-1 array were categorized into four groups: (A) no edit at either TAPE-1 site (‘OO’); (B) 5-bp insertion at the first TAPE-1 site only (‘XO’); (C) 5-bp insertion at the second TAPE-1 site only (‘OX’); or (D) 5-bp insertions at both TAPE-1 sites (‘XX’). For reads from 5×TAPE-1 array, editing groups were simplified by categorizing directional and iterative editing pattern (OOOOO, XO, XXO, XXXO, XXXXO, and XXXXX) and the erroneous editing patterns (OX, NOX, NNOX, and NNNOX, where N can be either O or X). Editing efficiencies at each site were calculated as the fraction of reads with an edit at the site over the total number of reads in which the site had been activated via insertion of the ‘key’ that completed the spacer sequence. […]

[2] = system: HEK293T cells; experiment: Screen of 48 3×TAPE constructs: efficiency and sequential error rate; conditions: for Sequential error rate (in words): 48 tested tapes
Experimental: In each of these 48 constructs, a 3×TAPE region was accompanied by a pegRNA-expressing cassette designed to target it with a 4-6 bp insertion (16 possible 2-bp barcodes followed by a 2-4 bp key sequence). HEK293T cells were transiently transfected with PE2-encoding plasmid and a pool of 48 pegRNA-by-3×TAPE constructs and harvested them after four days. The 3×TAPE region was PCR-amplified from genomic DNA and sequenced.
Two quantities were calculated for each 3×TAPE array: (1) efficiency, calculated by summing all edited reads and dividing by the total number of reads; and (2) sequential error rate, calculated by summing all edited reads inconsistent with sequential, directional editing and dividing by the total number of edited reads (FIG. 7B). […] Indeed, across the full experiment, a longer key sequence was associated with a lower sequential error rate (FIG. 7C). […] Performance characteristics were highly consistent when the experiment was repeated with integration rather than transient transfection of the constructs (FIG. 7E).

[3] = system: iPE2(+) HEK293T; experiment: Monoclonal lineage tracing, TargetBC-5×TAPE-1 arrays, sc-RNA-seq; conditions: after 25 days of editing, Dox
Text: The ordered manner in which edits accrue with DNA Typewriter, the use of a prime editor with a Cas9 nickase to insert one of many possible “symbols” at the type-guide, the predefined sequences and locations of potential edits, and the fact that one-and-only-one monomer is an active type-guide at any given moment, have the potential to address all of these limitations at once. […] First, a HEK293T cell line that expresses doxycycline (Dox)-inducible PE2 (iPE2(+) HEK293T) was constructed. A lentiviral construct was designed and cloned that includes: (1) the 5×TAPE-1 sequence, associated with a random 8-bp barcode region (TargetBC) at its 5′-end; (2) a transcription cassette for the TargetBC-5×TAPE-1 with a reverse transcription capture sequence for enrichment during sc-RNA-seq; and (3) a constitutive pegRNA expression cassette that targets TAPE-1 for a 6-bp insertion (NNNGGA; referred to below as InsertBC; GGA is the key sequence for TAPE-1) (FIG. 4A). Lentiviral transduction of this construct to the cell line at a high multiplicity of infection (MOI) was followed by serial dilution to isolate a monoclonal cell line that grew from 1 cell to ˜1.2M cells via ˜20 doublings over 25 days in the presence of Dox (FIG. 4B; FIG. 10A). After harvesting, sc-RNA-seq was used to recover and sequence multiple TargetBC-5×TAPE-1 arrays from each of ˜12,000 cells. […]

[4] = 5-bp insertions, conditional on site activated, per replicate, listed as 3xTAPE-1
[5] = 5-bp insertions, conditional on site activated, per replicate, listed as 5xTAPE-1
[6] = 6-bp ins., per replicate, listed as 5xTAPE-1

**Q.** What does the source list for “2×TAPE-1: TAPE-1 array with two monomers, SEQ ID NO: 58 (DNA GGATGATGGTGAGCACGTGATGGTGAGCACGTGATGGTGAGC; listed as DNA, chemistry not fully specified; the letters are possibly those of the target site)”?
**A.** Second monomer edited, in reads in which the first monomer was also edited [1]: 22.8±1.7%; Second monomer edited, in reads in which the first monomer was not edited [1]: 0.6%; Editing efficiencies: Site 2 ([1]; 5-bp insertions, conditional on site activated, per replicate, listed as 2xTAPE-1): 0.211 and 0.244 and 0.229; Editing efficiencies: Site 1 ([1]; 5-bp insertions, fraction of reads edited at the site over reads in which the site was activated, per transfection replicate, listed as 2xTAPE-1): 0.053 and 0.044 and 0.043; Overall editing rate: reads exhibiting any editing, of all reads [1]: 4.7±0.5%

**Q.** For “3×TAPE-1: TAPE-1 array with three monomers, SEQ ID NO: 59 (DNA GGATGATGGTGAGCACGTGATGGTGAGCACGTGATGGTGAGCACGTGATGGTGAGC; listed as DNA, chemistry not fully specified; the letters are possibly those of the target site)”, which “Reads edited at the second monomer that were also edited at the first monomer” value [1] is on record?
**A.** The value was 98.5%.

**Q.** And the “Reads edited at the third monomer that were also edited at the first and second monomers” value [1]?
**A.** Its value is 97.6%.

**Q.** What about the “Editing efficiencies: Site 2” value [1, 4] of the same molecule?
**A.** The value was 0.237 and 0.231 and 0.240.

**Q.** What about the “Editing efficiencies: Site 3” value [1, 4] of the same molecule?
**A.** The value was 0.170 and 0.189 and 0.221.

**Q.** What about the “Editing efficiencies: Site 1” value ([1]; 5-bp insertions, fraction of reads edited at the site over reads in which the site was activated, per transfection replicate, listed as 3xTAPE-1) of the same molecule?
**A.** The value was 0.059 and 0.051 and 0.047.

**Q.** And the “Overall editing rate: reads exhibiting any editing, of all reads” value [1]?
**A.** Its value is 5.2±0.6%.

**Q.** Which “Sequential error rate (in words)” value [2] does the source give for “TAPE-1: DNA Tape: 3-bp key GGA and tandem array of 14-bp monomer TGATGGTGAGCACG, from HEK3; SEQ ID NO: 2 (DNA GGATGATGGTGAGCACGTGATGGTGAGCACG; listed as DNA, chemistry not fully specified; the letters are possibly those of the target site)” here?
**A.** The value was “one of the lowest sequential error rates among the 48 tested tapes”.

**Q.** And the “Fifth sites edited (mean)” value [3]?
**A.** Its value is 19.7%.

**Q.** What about the “First sites of active arrays edited (mean)” value [3] of the same molecule?
**A.** The value was 96.8%.

**Q.** What about the “Editing rate of the first TAPE-1 monomer” value ([1]; PE2 and pegRNAs) of the same molecule?
**A.** Its value is roughly 6%.

**Q.** What about the “Editing rates of the second or third monomers, conditional on preceding monomers already edited” value ([1]; PE2 and pegRNAs) of the same molecule?
**A.** Its value is roughly 20%.

**Q.** How did the “Sequential error rate (in words)” value [2] turn out when “TAPE-6: DNA Tape design from HEK3 with 4-bp key, SEQ ID NO: 7 (DNA GGACTGATGGTGAGACGTGATGGTGAGACG; listed as DNA, chemistry not fully specified; the letters are possibly those of the target site)” was run?
**A.** Its value is “lower sequential error rate than TAPE-1”.

**Q.** Which “Greater efficiency than TAPE-1” value ([2]; 3×TAPE) does the source give for “TAPE-27: DNA Tape design, FANCF-based spacer, SEQ ID NO: 32 (DNA GAGATCCGGTCTGCAGCATCCGGTCTGCAGC; listed as DNA, chemistry not fully specified; the letters are possibly those of the target site)” here?
**A.** Its value is “over 50%”.

**Q.** What about the “Greater sequential error rate than TAPE-1” value ([2]; 3×TAPE) of the same molecule?
**A.** The value was 2 fold.

B1: 5×TAPE-1: TAPE-1 array with five monomers, SEQ ID NO: 60 (nucleic acid)
DNA: GGATGATGGTGAGCACGTGATGGTGAGCACGTGATGGTGAGCACGTGATGGTGAGCACGTGATGGTGAGCACGTGATGGTGAGC
modifications: listed as DNA, chemistry not fully specified; the letters are possibly those of the target site
**Q.** For B1, which “Reads edited at the second monomer that were also edited at the first monomer” value [1] is on record?
**A.** Its value is 99.0%.

**Q.** What about the “Reads edited at the third monomer that were also edited at the first and second monomers” value [1] of the same molecule?
**A.** Its value is 98.8%.

**Q.** What about the “Editing efficiencies: Site 2” value [1, 5] of the same molecule?
**A.** The value was 0.210 and 0.212 and 0.206.

**Q.** And the “Editing efficiencies: Site 3” value [1, 5]?
**A.** The value was 0.151 and 0.144 and 0.154.

**Q.** And the “Editing efficiencies: Site 4” value [1, 5]?
**A.** The value was 0.129 and 0.119 and 0.150.

**Q.** What about the “Editing efficiencies: Site 5” value [1, 5] of the same molecule?
**A.** The value was 0.098 and 0.194 and 0.175.

**Q.** And the “Editing efficiencies: Site 1” value ([1]; 5-bp insertions, fraction of reads edited at the site over reads in which the site was activated, per transfection replicate, listed as 5xTAPE-1)?
**A.** Its value is 0.066 and 0.059 and 0.051.

**Q.** What about the “Editing efficiencies: Site 1” value [1, 6] of the same molecule?
**A.** The value was 0.055 (2×) and 0.057.

**Q.** And the “Editing efficiencies: Site 2” value [1, 6]?
**A.** Its value is 0.180 and 0.177 and 0.181.

**Q.** What about the “Editing efficiencies: Site 3” value [1, 6] of the same molecule?
**A.** Its value is 0.083 and 0.078 and 0.089.

**Q.** What about the “Editing efficiencies: Site 4” value [1, 6] of the same molecule?
**A.** The value was 0.099 and 0.059 and 0.265.

**Q.** What about the “Editing efficiencies: Site 5” value [1, 6] of the same molecule?
**A.** The value was 0.364 and 0.900 and 0.000.

**Q.** What about the “Overall editing rate: reads exhibiting any editing, of all reads” value [1] of the same molecule?
**A.** The value was 5.9±0.8%.
